Experimental data taken from US20260294852A1, “COSMETIC COMPOSITION FOR PREVENTING, ALLEVIATING OR AMELIORATING ALOPECIA” (LG CHEM, LTD., priority 2023, published 2026).

Tests used:
Ki67 = assay: Expression of cell proliferation-related factor protein Ki67 (immunofluorescence) in cultured scalp tissue; assay type: cell-based, human; conditions: 0.1% 3HP, compared to the negative control group
Procedure: (§1) The ratio of hair follicle telogen and the expression level of hair follicle cell proliferation-related factor proteins depending on whether 3-hydroxypropionic acid was applied or not were evaluated according to the following methods.
The human hair follicles or scalp tissues provided for research purposes (IRB No. 4-2023-1052; Institutional Review Board, Severance Medical Center, Yonsei University College of Medicine) were washed several times with PBS to remove residual impurities, and randomly divided into each group. […]
After the scalp tissue was treated with the test composition for 24 hours, the obtained tissue was prepared into a frozen block, and frozen sectioned at a thickness of 5 μm using a Cryostat microtome (Leica Biosystems, Germany), and the tissue sections were attached onto Silane-coated slides. […] Finally, the tissues were fixed with a fixative containing blue fluorescent DAPI (VECTASHIELD® mounting medium with DAPI; Vector laboratories) that stains the cell nucleus, and then images were taken at 100× magnification using a fluorescence microscope (M2; Zeiss). The percentage of Ki67-expressing cells among the total cells labeled with DAPI was measured from the captured images, and a higher value means a higher number of Ki67-expressing cells.

[1] = system: Human follicle dermal papilla cells; assay: Human follicle dermal papilla cell viability (WST / CCK-8); assay type: cell-based; conditions: for Human follicle dermal papilla cell viability: 24 hours
Procedure: (§2) Human follicle dermal papilla cells (PromoCell GmbH) were cultured in human follicle dermal papilla cells growth medium (PromoCell GmbH) supplemented with fetal calf serum (FCS), bovine pituitary extract (BPE), basic fibroblast growth factor (bFGF), and insulin at 37° C. and 5% CO2.
The cultured human follicle dermal papilla cells were divided into 5×10^3 cells in a 96-well plate, and when the cells reached 80% or more confluency, they were treated with the 3-hydroxypropionic acid aqueous solution according to Preparation Example 1 at four concentrations ([…]), and then cultured for 24 hours. WST substrate solution (high sensitivity water soluble tetrazolium salt, CCK-8, DOJINDO) was then added to the medium, and cultured at 37° C. for 2 hours.
During the culture, a […] formazan was produced by the reaction between WST and intracellular dehydrogenase, and the absorbance (OD, wavelength 450 nm) was measured.
In Equation 1, the ‘experimental group’ is the group treated with an aqueous solution containing 3HP; the ‘control group’ is the medium containing only the WST substrate; and the ‘negative control group’ is the group in which a medium containing WST substrate was treated with an aqueous solution of 0% 3HP.

[2] = system: 5α-reductase gene (Srd5α1); assay: 5α-reductase gene expression level (real-time PCR, GAPDH-normalised) in human follicle dermal papilla cells; assay type: cell-based; conditions: for mrna remaining at 0.0125 % / mrna remaining at 0.025 % / mrna remaining at 0.05 %: Homo sapiens, 24 h, 24 hours; for mrna remaining at 0.0125 %: 3HP 0.0125 wt. %; for mrna remaining at 0.025 %: 3HP 0.025 wt. %; for mrna remaining at 0.05 %: 3HP 0.05 wt. %
Procedure: as §2
(§3) The cultured human follicle dermal papilla cells were divided into 5×10^4 cells in a 96-well plate, and when the cells reached 80% or more confluency, they were treated with the 3-hydroxypropionic acid aqueous solution according to Preparation Example 1 at four concentrations (3HP concentrations: 0 wt. %, 0.0125 wt. %, 0.025 wt. %, and 0.05 wt. %), and then cultured for 24 hours. Then, the total RNA in the cells was extracted, and cDNA was synthesized from the extracted RNA. The synthesized cDNA was subjected to real-time polymerase chain reaction. And, the relative quantitative analysis of each gene was performed using GAPDH (one of the house-keeping genes). The relative quantification (RQ) value was calculated according to the following Equation 2.
(§4) In the Equation 2, ‘Treatment’ is the group treated with 3HP; ‘Control’ is the group not treated with 3HP; ‘Target gene’ is Srd5α1 and TGF-β1, and ‘House-keeping gene’ is GAPDH.

TGF-β1 gene = TGF-β1 gene expression level (real-time PCR, GAPDH-normalised) in human follicle dermal papilla cells; assay type: cell-based; conditions: for mrna remaining at 0.0125 % / mrna remaining at 0.025 % / mrna remaining at 0.05 %: Homo sapiens, 24 h, 24 hours; for mrna remaining at 0.0125 %: 3HP 0.0125 wt. %; for mrna remaining at 0.025 %: 3HP 0.025 wt. %; for mrna remaining at 0.05 %: 3HP 0.05 wt. %
Procedure: as §2, §3, §4

human hair follicles = assay: Evaluation of the ratio of hair follicle telogen in DHT-treated anagen hair follicle tissue (ex vivo culture); assay type: cell-based; conditions: for Telogen ratio: 6 days vs day 0
Procedure: as §1
The human hair follicles or scalp tissues provided for research purposes (IRB No. 4-2023-1052; Institutional Review Board, Severance Medical Center, Yonsei University College of Medicine) were washed several times with PBS to remove residual impurities, and randomly divided into each group. The hair follicles and scalp tissues were cultured in Williams' Medium E (Sigma) supplemented with 2 mM L-glutamine (Sigma-Aldrich), 10 μg/ml insulin (Sigma-Aldrich), 100 ng/ml hydrocortisone (Sigma-Aldrich), 0.1% fungizone (Gibco, USA), and 1% antibiotic-antimycotic (Gibco), and 1% penicillin-[…] (Gibco) at 37° C. in 5% CO2.
To induce the telogen in the anagen hair follicle tissue, the test composition was treated with 1 μM dihydrotestosterone (DHT). The medium was replaced every 3 days and cultured for 6 days. The ratio of hair follicle telogen was visually evaluated based on the ratio of hair follicles in which the telogen occurred for 6 days compared to day 0.

[3] = under the treatment concentration

## O=C(O)CCO [3HP, 3-hydroxypropionic acid]
Ki67
  proliferation effect of hair follicle cells (in words): significantly increased
[1]; 3HP 0.025 wt. %, Average, SD 2.561, p-value 0.012 vs negative control (100%)
  Human follicle dermal papilla cell viability: 86.684%
[1]; 3HP 0.05 wt. %, Average, SD 0.735, p-value 0.001 vs negative control (100%)
  Human follicle dermal papilla cell viability: 85.841%
[1]; 3HP 0.05 wt. %, single run: Once
  Human follicle dermal papilla cell viability: 86.465%
[1]; 3HP 0.1%, Average, SD 2.416, p-value 0.003 vs negative control (100%)
  Human follicle dermal papilla cell viability: 75.333%
[1]; under the above treatment concentrations
  cell viability (in words): high
[2]; single run: Three times
  mrna remaining at 0.0125 %: 92.7%
  mrna remaining at 0.025 %: 91.4%
  mrna remaining at 0.05 %: 135%
[2]; single run: Two times
  mrna remaining at 0.0125 %: 81.5%
  mrna remaining at 0.025 %: 88%
  mrna remaining at 0.05 %: 113%
[2]; single run: Once
  mrna remaining at 0.05 %: 132%
[2]; [3]
  expression of the 5α-reductase gene (in words): significantly inhibited
TGF-β1 gene; single run: Three times
  mrna remaining at 0.0125 %: 78.5%
  mrna remaining at 0.025 %: 65.5%
  mrna remaining at 0.05 %: 118%
TGF-β1 gene; single run: Two times
  mrna remaining at 0.0125 %: 86.4%
  mrna remaining at 0.025 %: 72.3%
  mrna remaining at 0.05 %: 140%
TGF-β1 gene; single run: Once
  mrna remaining at 0.05 %: 131%
TGF-β1 gene; [3]
  expression of the TGF-β1 gene (in words): significantly inhibited
Human hair follicles; 0.1%, 0.5%, and 1.0% 3HP, compared to the DHT control group
  hair follicle telogen ratio (in words): significantly decreased
Human hair follicles; DHT (1 μM) + 0.5% 3HP, DHT alone 40.000
  Telogen ratio: 0.000%
Human hair follicles; DHT (1 μM) + 1.0% 3HP, DHT alone 40.000
  Telogen ratio: 0.000%

## O=C(O)CCCC[C@@H]1SC[C@@H]2NC(=O)N[C@@H]21 [Biotin, reference compound]
Human hair follicles; DHT (1 μM) + 2 ng/ml Biotin, DHT alone 40.000
  Telogen ratio: 10.000%

## C[C@]12CCC(=O)C[C@@H]1CC[C@@H]1[C@@H]2CC[C@]2(C)[C@@H](O)CC[C@@H]12 [DHT, dihydrotestosterone, reference compound]
Human hair follicles; 1 μM DHT alone (telogen inducer), Control 36.667
  Telogen ratio: 40.000%

## CC(C)(C)NC(=O)[C@H]1CC[C@H]2[C@@H]3CC[C@H]4NC(=O)C=C[C@]4(C)[C@H]3CC[C@]12C [Finasteride, reference compound]
Human hair follicles; DHT (1 μM) + 0.5 mM Finasteride, DHT alone 40.000
  Telogen ratio: 0.000%
